The test system of test [1] is solid tumor xenograft panel. Kind of test: Xenograft pharmacodynamic analysis (immunoblot of tumor lysates). Format: in vivo, mice. The conditions noted are these: 40 mg/kg, 6 hours post-dosing, high MCL-1:BCL-xL ratio tumors. (In general: Immunoblotting shows a protein as a band on a membrane.)
Procedure: Each tumor was divided into three parts. Two parts were snap frozen in liquid nitrogen and stored at −80° C. The third part was preserved in 10% neutral buffered formalin for 24 hours then stored in 70% ethanol at ambient temperature. Whole cell lysates from one snap frozen part were prepared by disruption/homogenation at 4° C. in a 2 ml conical-end microfuge tube containing two stainless steel beads ( 5/32″, grade 25, Ball Supply Corp) and 0.4 ml lysis buffer [1% Triton X-100, 30 mM Tris pH 7.4, 1 mM EDTA and protease (complete, mini, EDTA-free, Roche) and phosphatase (PhosSTOP, Roche) cocktail inhibitors] using a Qiagen Lyser II, shaking at 30 Hz for 2 minutes. 200 μl of pre-chilled 3×RIPA (Cell Signaling Technology) containing protease and phosphatase cocktail inhibitors was added to the homogenate, rotated at 4° C. for 10 minutes, and microcentrifuged at 12 kpm for 10 minutes at 4° C. The supernatant was removed, normalized for protein content using a BCA kit (Pierce, Rockford, Ill.) and stored at −80° C. For Western blots, 5 μg of lysate were subjected to SDS-PAGE except for cleaved PARP analysis, which required loading of 0.5 μg of lysate.
The test system of test [2] is 23 lung, breast, ovarian, colorectal, and prostate cell lines. Briefly: 18 hour viability assay (ATP quantitation). Type of test: cell-based. The conditions noted are these: Homo sapiens, 100 nM, range over 23 cell lines, read-out: cell viability relative to DMSO-negative control.

On to `CCc1cnn2c(NCc3ccc[n+]([O-])c3)cc(N3CCCC[C@H]3CCO)nc12` [SCH 727965 (Dinaciclib)], for which the “apoptosis (cleaved PARP) in tumors” value in test [1] was “induced apoptosis”. For the same molecule, in test [2], the viability (in general, a read-out of living cells in per cent, often relative to untreated cells) at 0.1 µM lay in the range of 23 to 102%.

(Values after patent US20150051227A1, “PREDICTIVE BIOMARKER USEFUL FOR CANCER THERAPY MEDIATED BY A CDK INHIBITOR” (Merck Sharp & Dohme Corp., priority 2012, published 2015).)
